The text below walks through data of patent US10219516B2, “Molecules having pesticidal utility, and intermediates, compositions, and processes, related thereto” (priority 2015, dated 2019).

Where two headings read alike, the source gives them in different places.

What all share (assay type): in vivo
Test [1] concerns Beet Armyworm (Spodoptera exigua, LAPHEG). The experiment in a line: Bioassay on Beet Armyworm (BAW), 128-well diet tray assay. The essentials: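 Second-instar larvae, one to five per well, placed on artificial diet surface-treated with 50 μg/cm^2 compound applied in 90:10 acetone-water and dried. Held 5–7 days at 25° C., 14:10 light-dark. Percent mortality recorded per well and averaged over eight wells.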

In test [2] the test system is Cabbage Looper (Trichoplusia ni, TRIPNI). Kind of test: Bioassay on Cabbage Looper (CL), 128-well diet tray assay. The note with it: Trichoplusia ni. Summed up:
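Mortality of second instar larvae exposed to diet coated with 50 μg/cm^2 compound (acetone-water 90:10 vehicle, dried); 25° C., 5–7 days.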

The test system of test [3] is Yellow Fever Mosquito (Aedes aegypti, AEDSAE). Kind of test: Bioassay on Yellow Fever Mosquito (YFM), 96-well plate larval assay. The note with it: for YFM rating: Yellow Fever Mosquito, 96-well plate larval assay; for YFM (Biological Results, rating): Species YFM (Yellow Fever Mosquito). Summed up:
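Compound stocks at 4000 ppm in DMSO were diluted with 90:10 water/acetone, and 15 μL aliquots were dispensed into six replicate plates. About 1-day-old larvae in liver-powder water were added per well. Plates were covered and held at room temperature for 3 days before each well was scored for mortality.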

[4] abbreviates: Beet Armyworm, 128-well diet tray assay, read-out: BAW rating.
Setting [5] is: Cabbage Looper, 128-well diet tray assay, read-out: CL rating.
The mark [6] stands for this setting: Species BAW (Beet Armyworm), read-out: BAW (Biological Results, rating).
Setting [7] is: Species CL (Cabbage Looper), read-out: CL (Biological Results, rating).

Take `CN(C(=O)c1cc(NC(=O)[C@H]2[C@H](c3ccc(C(F)F)c(F)c3)C2(Cl)Cl)ccc1Cl)c1ccc(F)cc1` (relative stereo) [F597, 2-Chloro-5-(trans-2,2-dichloro-3-(4-(difluoromethyl)-3-fluorophenyl)cyclopropane-1-carboxamido)-N-(4-fluorophenyl)-N-methylbenzamide]: the pest or weed control at 50 µg/cm2 in test [1] (setting [4]) and in test [2] (setting [5]) was 50 to 100% in each case. In addition, the YFM rating result in test [3] is listed as “A (80-100)”.

For `CC1(c2cc(Cl)cc(Cl)c2)C(C(=O)Nc2ccc(Cl)c(C(=O)Nc3ccc(F)cc3)c2)C1(Cl)Cl` (stereo not drawn) [F251, 2-Chloro-5-trans-(2,2-dichloro-3-(3,5-dichlorophenyl)-3-methylcyclopropane-1-carboxamido)-N-(4-fluorophenyl)benzamide], the pest or weed control at 50 µg/cm2 in test [1] (setting [6]) and in test [2] (setting [7]) was 50 to 100% each time. Further, the “YFM (Biological Results, rating)” value in test [3] is reported as “A (80-100)”.

Take `O=C(Nc1ccc(F)cc1F)c1cc(NC(=O)[C@H]2[C@H](c3cc(F)c(Br)c(F)c3)C2(Cl)Cl)ccc1Cl` (relative stereo) [F541, 5-(trans-3-(4-Bromo-3,5-difluorophenyl)-2,2-dichlorocyclopropane-1-carboxamido)-2-chloro-N-(2,4-difluorophenyl)benzamide]: the pest or weed control at 50 µg/cm2 in test [1] (setting [4]) and in test [2] (setting [5]) was 50 to 100% in each case. For the same molecule, the YFM rating entry in test [3] was “A (80-100)”.

With `O=C(Nc1ccc(Cl)cc1F)c1cc(NC(=O)C2C(c3cc(Cl)cc(Cl)c3)C2(Cl)Cl)ccc1Cl` (stereo not drawn) [PF116, 2-Chloro-N-(4-chloro-2-fluorophenyl)-5-(trans)-2,2-dichloro-3-(3,5-dichlorophenyl)cyclopropane-1-carboxamido)benzamide], the pest or weed control at 50 µg/cm2 in test [1] (setting [4]) and in test [2] (setting [5]) was 50 to 100% throughout. The YFM rating result in test [3] was “B (More than 0-Less than 80)”.

In the case of `O=C(Nc1ccc(F)cc1F)c1cc(NC(=O)[C@@H]2[C@@H](c3ccc(Cl)c(Cl)c3)C2(Cl)Cl)ccc1Cl` [F210, 2-Chloro-5-((1S,3S)-2,2-dichloro-3-(3,4-dichlorophenyl)cyclopropane-1-carboxamido)-N-(2,4-difluorophenyl)benzamide], the pest or weed control at 50 µg/cm2 in test [1] (setting [6]) and in test [2] (setting [7]) was 50 to 100% throughout. Further, the “YFM (Biological Results, rating)” value in test [3] is given as “A (80-100)”.

As to `Cc1cc(N2C(=O)C=CC2=O)ccc1NC(=O)c1cc(NC(=O)[C@H]2[C@H](c3cc(Cl)cc(Cl)c3)C2(Cl)Cl)ccc1Cl` (relative stereo) [F480, 2-chloro-5-(trans-2,2-dichloro-3-(3,5-dichlorophenyl)cyclopropane-1-carboxamido)-N-(4-(2,5-dioxo-2,5-dihydro-1H-pyrrol-1-yl)-2-methylphenyl)benzamide], the pest or weed control at 50 µg/cm2 in test [1] (setting [4]) and in test [2] (setting [5]) was 50 to 100% in each case. The YFM rating result in test [3] is “A (80-100)”.

With `Cc1cc(N)ccc1NC(=O)c1cc(NC(=O)[C@H]2[C@H](c3ccc(F)c(Cl)c3)C2(Cl)Cl)ccc1Cl` (relative stereo) [F228, trans-N-(4-Amino-2-methylphenyl)-2-chloro-5-(2,2-dichloro-3-(3-chloro-4-fluorophenyl)cyclopropane-1-carboxamido)benzamide], the pest or weed control at 50 µg/cm2 in test [1] (setting [6]) and in test [2] (setting [7]) was 50 to 100% throughout. For the same molecule, in test [3], the “YFM (Biological Results, rating)” value is reported as “A (80-100)”.

In the case of `Nc1cc(F)c(NC(=O)c2cc(NC(=O)[C@H]3[C@H](c4ccc(F)c(Cl)c4)C3(Cl)Cl)ccc2Cl)cc1F` [F571, trans-N-(4-Amino-2,5-difluorophenyl)-2-chloro-5-((1R,3R)-2,2-dichloro-3-(3-chloro-4-fluorophenyl)cyclopropane-1-carboxamido)benzamide], the pest or weed control at 50 µg/cm2 in test [1] (setting [4]) and in test [2] (setting [5]) was 50 to 100% throughout. In addition, the YFM rating entry in test [3] is “A (80-100)”.

On to `Cc1cc(NC(=O)c2cc(NC(=O)[C@H]3[C@H](c4cc(Cl)cc(Cl)c4)C3(Cl)Cl)ccc2Cl)cnc1F` (relative stereo) [F396, 2-Chloro-5-(trans-2,2-dichloro-3-(3,5-dichlorophenyl)cyclopropane-1-carboxamido)-N-(6-fluoro-5-methylpyridin-3-yl)benzamide], for which the pest or weed control at 50 µg/cm2 in test [1] (setting [4]) and in test [2] (setting [5]) was 50 to 100% in each case. Besides, in test [3], the YFM rating result is on record as “A (80-100)”.

For `CN(C(=O)c1cc(NC(=O)[C@H]2[C@H](c3ccc(C(F)F)c(Cl)c3)C2(Cl)Cl)ccc1Cl)c1ccc(F)cc1` (relative stereo) [F596, 2-Chloro-5-(trans-2,2-dichloro-3-(3-chloro-4-(difluoromethyl)phenyl)cyclopropane-1-carboxamido)-N-(4-fluorophenyl)-N-methylbenzamide], the pest or weed control at 50 µg/cm2 in test [1] (setting [4]) and in test [2] (setting [5]) was 50 to 100% throughout. The YFM rating result in test [3] is given as “A (80-100)”.

For `O=C(Nc1ccc(F)cc1F)c1cc(NC(=O)[C@H]2[C@H](c3ccc(F)c(Br)c3)C2(Cl)Cl)ccc1Cl` (relative stereo) [F375, 5-(trans)-(3-(3-Bromo-4-fluorophenyl)-2,2-dichlorocyclopropane-1-carboxamido)-2-chloro-N-(2,4-difluorophenyl)benzamide], the pest or weed control at 50 µg/cm2 in test [1] (setting [4]) and in test [2] (setting [5]) was 50 to 100% each time. The YFM rating entry in test [3] was “A (80-100)”.

As to `N#Cc1ccc(NC(=O)c2cc(NC(=O)[C@H]3[C@H](c4cc(Cl)cc(Cl)c4)C3(Cl)Cl)ccc2Cl)cc1F` (relative stereo) [F233, 2-Chloro-N-(4-cyano-3-fluorophenyl)-5-(trans-2,2-dichloro-3-(3,5-dichlorophenyl)cyclopropane-1-carboxamido)benzamide], the pest or weed control at 50 µg/cm2 in test [1] (setting [6]) and in test [2] (setting [7]) was 50 to 100% each time. Also, the “YFM (Biological Results, rating)” value in test [3] was “A (80-100)”.

For the molecule `N#Cc1cc(Cl)cc(C2C(C(=O)Nc3ccc(Cl)c(C(=O)Nc4ccc(F)cc4)c3)C2(Cl)Cl)c1` (stereo not drawn) [PF155, 2-Chloro-5-(trans)-2,2-dichloro-3-(3-chloro-5-cyanophenyl)cyclopropane-1-carboxamido)-N-(4-fluorophenyl)benzamide], the pest or weed control at 50 µg/cm2 in test [1] (setting [4]) and in test [2] (setting [5]) was 50 to 100% each time. In addition, in test [3], the YFM rating entry is “B (More than 0-Less than 80)”.

For `O=C(Nc1nc2ccccc2s1)c1cc(NC(=O)C2C(c3cc(Cl)cc(Cl)c3)C2(Cl)Cl)ccc1Cl` (stereo not drawn) [F441, N-(Benzo[d]thiazol-2-yl)-2-chloro-5-(trans)-2,2-dichloro-3-(3,5-dichlorophenyl)cyclopropane-1-carboxamido)benzamide], the pest or weed control at 50 µg/cm2 in test [1] (setting [4]) and in test [2] (setting [5]) was 50 to 100% in each case. In addition, in test [3], the YFM rating entry is “B (More than 0-Less than 80)”.

With `N#Cc1cc(F)ccc1NC(=O)c1cc(NC(=O)[C@H]2[C@H](c3cc(Cl)cc(Br)c3)C2(Cl)Cl)ccc1Cl` (relative stereo) [F333, 5-(trans-3-(3-Bromo-5-chlorophenyl)-2,2-dichlorocyclopropane-1-carboxamido)-2-chloro-N-(2-cyano-4-fluorophenyl)benzamide], the pest or weed control at 50 µg/cm2 in test [1] (setting [6]) and in test [2] (setting [7]) was 50 to 100% in each case. Moreover, in test [3], the “YFM (Biological Results, rating)” value is reported as “A (80-100)”.
